Our source for the DC50 values is US12310975B2, “Modulators of BCL6 proteolysis and associated methods of use” (Arvinas Operations, Inc., priority 2019, dated 2025).

For the assay, the target named is BCL6 (Homo sapiens (Human), UniProt P41182). As to the kind of experiment: Immunofluorescence high content imaging of BCL6 degradation in T47D cells. It is filed as cell-based. As to conditions: class symbols A-D, read-out: EC50 (nM)*. Put shortly:
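T47D cells were treated for 3 days at 37 °C with 11-point 3-fold dilutions of bifunctional degrader (final top 0.1 or 1 μM). BCL6 was detected by immunofluorescence after PFA fixation, with Hoechst and cell mask counterstains, and imaged at 10×, 4 fields/well.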
As for `CNC(=O)COc1cc2cc(Nc3nc(N4CCC(c5cn(CCOCCOCCOCCOCCOCC(=O)N[C@H](C(=O)N6C[C@H](O)C[C@H]6C(=O)N[C@@H](C)c6ccc(-c7scnc7C)cc6)C(C)(C)C)nn5)CC4)ncc3Cl)ccc2n(C)c1=O` [compound 117, (2S,4R)-1-((S)-2-(tert-butyl)-20-(4-(1-(5-chloro-4-((1-methyl-3-(2-(methylamino)-2-oxoethoxy)-2-oxo-1,2-dihydroquinolin-6-yl)amino)pyrimidin-2-yl)piperidin-4-yl)-1H-1,2,3-triazol-1-yl)-4-oxo-6,9,12,15,18-pentaoxa-3-azaicosanoyl)-4-hydroxy-N-((S)-1-(4-(4-methylthiazol-5-yl)phenyl)ethyl)pyrrolidine-2-carboxamide], the DC50 was in the range of 10 to 50 nM. The figure for `CNC(=O)COc1cc2cc(Nc3nc(N4CCC(OCc5ccc(OCCOCCOCCOc6ccc7c(c6)CN(C6CCC(=O)NC6=O)C7=O)cc5)CC4)ncc3Cl)ccc2n(C)c1=O` (stereo not drawn) [compound 118, 2-((6-((5-chloro-2-(4-((4-(2-(2-(2-((2-(2,6-dioxopiperidin-3-yl)-1-oxoisoindolin-5-yl)oxy)ethoxy)ethoxy)ethoxy)benzyl)oxy)piperidin-1-yl)pyrimidin-4-yl)amino)-1-methyl-2-oxo-1,2-dihydroquinolin-3-yl)oxy)-N-methylacetamide] is 50 to 100 nM; for `CNC(=O)COc1cc2cc(Nc3nc(N4CCC(c5cn(CCOCCOCCOc6ccc7c(c6)C(=O)N(C6CCC(=O)NC6=O)C7=O)nn5)CC4)ncc3Cl)ccc2n(C)c1=O` (stereo not drawn) [compound 120, 2-((6-((5-chloro-2-(4-(1-(2-(2-(2-((2-(2,6-dioxopiperidin-3-yl)-1,3-dioxoisoindolin-5-yl)oxy)ethoxy)ethoxy)ethyl)-1H-1,2,3-triazol-4-yl)piperidin-1-yl)pyrimidin-4-yl)amino)-1-methyl-2-oxo-1,2-dihydroquinolin-3-yl)oxy)-N-methylacetamide] it is 50 to 100 nM; for `CNC(=O)COc1cc2cc(Nc3nc(N4CCC(c5cn(CCOCCOCCOCCOCCOc6ccc7c(c6)C(=O)N(C6CCC(=O)NC6=O)C7=O)nn5)CC4)ncc3Cl)ccc2n(C)c1=O` (stereo not drawn) [compound 121, 2-((6-((5-chloro-2-(4-(1-(14-((2-(2,6-dioxopiperidin-3-yl)-1,3-dioxoisoindolin-5-yl)oxy)-3,6,9,12-tetraoxatetradecyl)-1H-1,2,3-triazol-4-yl)piperidin-1-yl)pyrimidin-4-yl)amino)-1-methyl-2-oxo-1,2-dihydroquinolin-3-yl)oxy)-N-methylacetamide] it is 50 to 100 nM. The figure for `CNC(=O)COc1cc2cc(Nc3nc(N4CCC(Cc5cn(CCOCC(=O)N[C@H](C(=O)N6C[C@H](O)C[C@H]6C(=O)N[C@@H](C)c6ccc(-c7scnc7C)cc6)C(C)(C)C)nn5)CC4)ncc3Cl)ccc2n(C)c1=O` [compound 122, (2S,4R)-1-((S)-2-(2-(2-(4-((1-(5-chloro-4-((1-methyl-3-(2-(methylamino)-2-oxoethoxy)-2-oxo-1,2-dihydroquinolin-6-yl)amino)pyrimidin-2-yl)piperidin-4-yl)methyl)-1H-1,2,3-triazol-1-yl)ethoxy)acetamido)-3,3-dimethylbutanoyl)-4-hydroxy-N-((S)-1-(4-(4-methylthiazol-5-yl)phenyl)ethyl)pyrrolidine-2-carboxamide] is 50 to 100 nM; for `CNC(=O)COc1cc2cc(Nc3nc(N4CCC(Cc5cn(CCOCCOCCOCC(=O)N[C@H](C(=O)N6C[C@H](O)C[C@H]6C(=O)N[C@@H](C)c6ccc(-c7scnc7C)cc6)C(C)(C)C)nn5)CC4)ncc3Cl)ccc2n(C)c1=O` [compound 123, (2S,4R)-1-((S)-2-(tert-butyl)-14-(4-((1-(5-chloro-4-((1-methyl-3-(2-(methylamino)-2-oxoethoxy)-2-oxo-1,2-dihydroquinolin-6-yl)amino)pyrimidin-2-yl)piperidin-4-yl)methyl)-1H-1,2,3-triazol-1-yl)-4-oxo-6,9,12-trioxa-3-azatetradecanoyl)-4-hydroxy-N-((S)-1-(4-(4-methylthiazol-5-yl)phenyl)ethyl)pyrrolidine-2-carboxamide] it is 50 to 100 nM; for `CNC(=O)COc1cc2cc(Nc3nc(N4CCC(Cc5cn(CCOCCOCCOCCOCCOCC(=O)N[C@H](C(=O)N6C[C@H](O)C[C@H]6C(=O)N[C@@H](C)c6ccc(-c7scnc7C)cc6)C(C)(C)C)nn5)CC4)ncc3Cl)ccc2n(C)c1=O` [compound 124, (2S,4R)-1-((S)-2-(tert-butyl)-20-(4-((1-(5-chloro-4-((1-methyl-3-(2-(methylamino)-2-oxoethoxy)-2-oxo-1,2-dihydroquinolin-6-yl)amino)pyrimidin-2-yl)piperidin-4-yl)methyl)-1H-1,2,3-triazol-1-yl)-4-oxo-6,9,12,15,18-pentaoxa-3-azaicosanoyl)-4-hydroxy-N-((S)-1-(4-(4-methylthiazol-5-yl)phenyl)ethyl)pyrrolidine-2-carboxamide] it is 50 to 100 nM.

Take `CNC(=O)COc1cc2cc(Nc3nc(N4CCC(c5ccc(OCCCOCCCOCCOc6ccc7c(c6)CN(C6CCC(=O)NC6=O)C7=O)cc5)CC4)ncc3Cl)ccc2n(C)c1=O` (stereo not drawn) [compound 125, 2-((6-((5-chloro-2-(4-(4-(3-(3-(2-((2-(2,6-dioxopiperidin-3-yl)-1-oxoisoindolin-5-yl)oxy)ethoxy)propoxy)propoxy)phenyl)piperidin-1-yl)pyrimidin-4-yl)amino)-1-methyl-2-oxo-1,2-dihydroquinolin-3-yl)oxy)-N-methylacetamide]: the DC50 was above 100 nM. In the case of `CNC(=O)COc1cc2cc(Nc3nc(N4CCC(OCCOCCOCCOCCc5cccc(Oc6ccc7c(c6)CN(C6CCC(=O)NC6=O)C7=O)c5)CC4)ncc3Cl)ccc2n(C)c1=O` (stereo not drawn) [compound 126, 2-((6-((5-chloro-2-(4-(2-(2-(2-(3-((2-(2,6-dioxopiperidin-3-yl)-1-oxoisoindolin-5-yl)oxy)phenethoxy)ethoxy)ethoxy)ethoxy)piperidin-1-yl)pyrimidin-4-yl)amino)-1-methyl-2-oxo-1,2-dihydroquinolin-3-yl)oxy)-N-methylacetamide], the DC50 is above 100 nM.

With `CNC(=O)COc1cc2cc(Nc3nc(N4CCC(c5cn(CCOCCOCCOCCOc6ccc7c(c6)C(=O)N(C6CCC(=O)NC6=O)C7=O)nn5)CC4)ncc3Cl)ccc2n(C)c1=O` (stereo not drawn) [compound 129, 2-((6-((5-chloro-2-(4-(1-(2-(2-(2-(2-((2-(2,6-dioxopiperidin-3-yl)-1,3-dioxoisoindolin-5-yl)oxy)ethoxy)ethoxy)ethoxy)ethyl)-1H-1,2,3-triazol-4-yl)piperidin-1-yl)pyrimidin-4-yl)amino)-1-methyl-2-oxo-1,2-dihydroquinolin-3-yl)oxy)-N-methylacetamide], the DC50 is above 100 nM. In the case of `CNC(=O)COc1cc2cc(Nc3nc(N4CCC(Cc5cn(CCOCCOCCOc6ccc7c(c6)C(=O)N(C6CCC(=O)NC6=O)C7=O)nn5)CC4)ncc3Cl)ccc2n(C)c1=O` (stereo not drawn) [compound 130, 2-((6-((5-chloro-2-(4-((1-(2-(2-(2-((2-(2,6-dioxopiperidin-3-yl)-1,3-dioxoisoindolin-5-yl)oxy)ethoxy)ethoxy)ethyl)-1H-1,2,3-triazol-4-yl)methyl)piperidin-1-yl)pyrimidin-4-yl)amino)-1-methyl-2-oxo-1,2-dihydroquinolin-3-yl)oxy)-N-methylacetamide], the DC50 is above 100 nM. The figure for `CNC(=O)COc1cc2cc(Nc3nc(N4CCC(Cc5cn(CCOCCOCCOCCOc6ccc7c(c6)C(=O)N(C6CCC(=O)NC6=O)C7=O)nn5)CC4)ncc3Cl)ccc2n(C)c1=O` (stereo not drawn) [compound 131, 2-((6-((5-chloro-2-(4-((1-(2-(2-(2-(2-((2-(2,6-dioxopiperidin-3-yl)-1,3-dioxoisoindolin-5-yl)oxy)ethoxy)ethoxy)ethoxy)ethyl)-1H-1,2,3-triazol-4-yl)methyl)piperidin-1-yl)pyrimidin-4-yl)amino)-1-methyl-2-oxo-1,2-dihydroquinolin-3-yl)oxy)-N-methylacetamide] is above 100 nM; for `CNC(=O)COc1cc2cc(Nc3nc(N4CCC(Cc5cn(CCOCCOCCOCCOCCOc6ccc7c(c6)C(=O)N(C6CCC(=O)NC6=O)C7=O)nn5)CC4)ncc3Cl)ccc2n(C)c1=O` (stereo not drawn) [compound 132, 2-((6-((5-chloro-2-(4-((1-(14-((2-(2,6-dioxopiperidin-3-yl)-1,3-dioxoisoindolin-5-yl)oxy)-3,6,9,12-tetraoxatetradecyl)-1H-1,2,3-triazol-4-yl)methyl)piperidin-1-yl)pyrimidin-4-yl)amino)-1-methyl-2-oxo-1,2-dihydroquinolin-3-yl)oxy)-N-methylacetamide] it is above 100 nM; for `CNC(=O)COc1cc2cc(Nc3nc(N4CCC(Cc5cn(CCOCCOCC(=O)N[C@H](C(=O)N6C[C@H](O)C[C@H]6C(=O)N[C@@H](C)c6ccc(-c7scnc7C)cc6)C(C)(C)C)nn5)CC4)ncc3Cl)ccc2n(C)c1=O` [compound 133, (2S,4R)-1-((S)-2-(2-(2-(2-(4-((1-(5-chloro-4-((1-methyl-3-(2-(methylamino)-2-oxoethoxy)-2-oxo-1,2-dihydroquinolin-6-yl)amino)pyrimidin-2-yl)piperidin-4-yl)methyl)-1H-1,2,3-triazol-1-yl)ethoxy)ethoxy)acetamido)-3,3-dimethylbutanoyl)-4-hydroxy-N-((S)-1-(4-(4-methylthiazol-5-yl)phenyl)ethyl)pyrrolidine-2-carboxamide] it is above 100 nM. The figure for `CNC(=O)COc1cc2cc(Nc3nc(N4CCC(OCCOCCOCCOCCOc5ccccc5Oc5ccc6c(c5)CN(C5CCC(=O)NC5=O)C6=O)CC4)ncc3Cl)ccc2n(C)c1=O` (stereo not drawn) [compound 134, 2-((6-((5-chloro-2-(4-(2-(2-(2-(2-(2-((2-(2,6-dioxopiperidin-3-yl)-1-oxoisoindolin-5-yl)oxy)phenoxy)ethoxy)ethoxy)ethoxy)ethoxy)piperidin-1-yl)pyrimidin-4-yl)amino)-1-methyl-2-oxo-1,2-dihydroquinolin-3-yl)oxy)-N-methylacetamide] is above 100 nM.
